In patent US9586958B2, “Prodrug derivatives of substituted triazolopyridines” (BAYER PHARMA AKTIENGESELLSCHAFT, priority 2013, dated 2017):
Where two headings read alike, the source gives them in different places.

Assays:
[1] = Metabolic stability in vitro, human liver microsomes (calculation of Fmax); format: in vitro ADME; settings: for Human liver microsomes; Fmax [%]: 1 μM; for calculated maximal oral bioavailability (Fmax) at 1 μM: pH 7.4, determined by means of human liver microsomes, read-out: maximum oral bioavailability (Fmax) in human
Experimental: (§1) The metabolic stability of test compounds in vitro was determined by incubating them at 1 μM with a suspension liver microsomes in 100 mM phosphate buffer, pH7.4 (NaH2PO4×H2O+Na2HPO4×2H2O) at a protein concentration of 0.5 mg/mL and at 37° C. The reaction was activated by adding a co-factor mix containing 1.2 mg NADP, 3 IU glucose-6-phosphate dehydrogenase, 14.6 mg glucose-6-phosphate and 4.9 mg MgCl2 in phosphate buffer, pH 7.4. Organic solvent in the incubations was limited to <0.2% dimethylsulfoxide (DMSO) and <1% methanol. During incubation, the microsomal suspensions were continuously shaken and aliquots were taken at 2, 8, 16, 30, 45 and 60 min, to which equal volumes of cold methanol were immediately added. Samples were frozen at −20° C. over night, subsequently centrifuged for 15 minutes at 3000 rpm and the supernatant was analyzed with an Agilent 1200 HPLC-system with LCMS/MS detection.
(§2) The half-life of a test compound was determined from the concentration-time plot. From the half-life the intrinsic clearances were calculated. Together with the additional parameters liver blood flow, specific liver weight and microsomal protein content the hepatic in vivo blood clearance (CL) and the maximal oral bioavailability (Fmax) were calculated for the different species. The following parameter values were used: Liver blood flow—1.3 L/h/kg (human), 2.1 L/h/kg (dog), 4.2 L/h/kg (rat); specific liver weight—21 g/kg (human), 39 g/kg (dog), 32 g/kg (rat); microsomal protein content—40 mg/g.
(§3) With the described assay only phase-I metabolism of microsomes is reflected, e.g. typically oxidoreductive reactions by cytochrome P450 enzymes and flavin mono-oxygenases (FMO) and hydrolytic reactions by esterases (esters and amides).

human kinase Mps-1 [2] = biological target: T1, human kinase Mps-1 (Homo sapiens, UniProt P33981); assay: Mps-1 kinase assay (TR-FRET) with 10 μM ATP; format: biochemical
T1 construct: N-terminally GST-tagged human full length recombinant Mps-1 kinase; GST (N); purchased Invitrogen, Karslruhe, Germany PV4071
T1 sequence (P33981 1-857): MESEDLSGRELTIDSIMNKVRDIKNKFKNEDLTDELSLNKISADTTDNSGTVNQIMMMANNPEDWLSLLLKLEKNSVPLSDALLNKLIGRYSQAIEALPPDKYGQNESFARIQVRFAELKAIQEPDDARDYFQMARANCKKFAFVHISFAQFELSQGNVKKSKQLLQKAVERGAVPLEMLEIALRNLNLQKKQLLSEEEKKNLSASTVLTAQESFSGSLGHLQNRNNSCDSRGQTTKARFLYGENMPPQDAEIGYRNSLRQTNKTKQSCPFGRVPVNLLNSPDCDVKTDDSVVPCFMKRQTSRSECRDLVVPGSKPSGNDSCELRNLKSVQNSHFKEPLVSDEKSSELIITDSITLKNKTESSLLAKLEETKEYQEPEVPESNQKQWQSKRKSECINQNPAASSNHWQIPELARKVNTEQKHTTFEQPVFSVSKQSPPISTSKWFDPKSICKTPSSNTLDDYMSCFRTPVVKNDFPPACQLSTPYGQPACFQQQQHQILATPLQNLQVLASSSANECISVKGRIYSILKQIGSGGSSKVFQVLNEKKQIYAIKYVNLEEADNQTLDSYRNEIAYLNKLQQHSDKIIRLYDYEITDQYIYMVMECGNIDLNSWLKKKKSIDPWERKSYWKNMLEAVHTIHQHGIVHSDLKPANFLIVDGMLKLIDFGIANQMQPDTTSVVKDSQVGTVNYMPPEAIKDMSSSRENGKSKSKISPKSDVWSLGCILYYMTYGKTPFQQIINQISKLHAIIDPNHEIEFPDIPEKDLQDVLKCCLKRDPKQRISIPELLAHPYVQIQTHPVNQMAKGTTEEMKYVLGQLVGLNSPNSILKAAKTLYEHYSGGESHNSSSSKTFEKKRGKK

[3] = Metabolic stability in vitro, dog liver microsomes (calculation of Fmax); format: in vitro ADME
Experimental: as §1, §2, §3

[4] = system: HeLa-MaTu-ADR, multidrug-resistant human cervical carcinoma cells; assay: Proliferation assay, HeLa-MaTu-ADR cells (crystal violet); format: cell-based; settings: read-out: IC50 determined in a HeLa-MaTu-ADR cell proliferation assay
Experimental: (§4) Cultivated tumor cells (MCF7, hormone dependent human mammary carcinoma cells, ATCC HTB22; NCI-H460, human non-small cell lung carcinoma cells, ATCC HTB-177; DU 145, hormone-independent human prostate carcinoma cells, ATCC HTB-81; HeLa-MaTu, human cervical carcinoma cells, EPO-GmbH, Berlin; HeLa-MaTu-ADR, multidrug-resistant human cervical carcinoma cells, EPO-GmbH, Berlin; HeLa human cervical tumor cells, ATCC CCL-2; B16F10 mouse melanoma cells, ATCC CRL-6475) were plated at a density of 5000 cells/well (MCF7, DU145, HeLa-MaTu-ADR), 3000 cells/well (NCI-H460, HeLa-MaTu, HeLa), or 1000 cells/well (B16F10) in a 96-well multititer plate in 200 μl of their respective growth medium supplemented 10% fetal calf serum. After 24 hours, the cells of one plate (zero-point plate) were stained with crystal violet (see below), while the medium of the other plates was replaced by fresh culture medium (200 μl), to which the test substances were added in various concentrations (0 μM, as well as in the range of 0.01-30 μM; the final concentration of the solvent dimethyl sulfoxide was 0.5%). The cells were incubated for 4 days in the presence of test substances. Cell proliferation was determined by staining the cells with crystal violet: the cells were fixed by adding 20 μl/measuring point of an 11% glutaric aldehyde solution for 15 minutes at room temperature. After three washing cycles of the fixed cells with water, the plates were dried at room temperature. The cells were stained by adding 100 μl/measuring point of a 0.1% crystal violet solution (pH 3.0). After three washing cycles of the stained cells with water, the plates were dried at room temperature. The dye was dissolved by adding 100 μl/measuring point of a 10% acetic acid solution. The extinction was determined by photometry at a wavelength of 595 nm. The change of cell number, in percent, was calculated by normalization of the measured values to the extinction values of the zero-point plate (=0%) and the extinction of the untreated (0 μm) cells (=100%). The IC50 values were determined by means of a 4 parameter fit.

human kinase Mps-1 [5] = biological target: T1, human kinase Mps-1; assay: Mps-1 kinase assay (TR-FRET) with 2 mM ATP; format: biochemical
[6] = Metabolic stability in vitro, rat liver microsomes (calculation of Fmax); format: in vitro ADME
Experimental: as §1, §2, §3

[7] = system: HeLa human cervical tumor cells; assay: Proliferation assay, HeLa cells (crystal violet); format: cell-based
Experimental: as §4

[8] = Solubility of compound A1 at 25° C. in different solvents; format: physicochemical
[9] = IC50 in an Mps-1 kinase assay with a concentration of 10 μM ATP
[10] = Mps-1 Inhibition, IC50 (Assay with 10 μM ATP), comparison table with comparative examples
[11] = Mps-1 Inhibition, IC50 in M (Assay with 10 μM ATP)
[12] = comparison table with comparative examples
[13] = IC50 in an Mps-1 kinase assay with a concentration of 2 mM ATP
[14] = Mps-1 Inhibition, IC50 in M (Assay with 2 mM ATP)
[15] = 96 h, HeLa cells, 4 days, read-out: Inhibition of cell proliferation, cell Line: HeLa IC50
[16] = HeLa, comparison table with comparative examples, read-out: Inhibition of cell proli-feration, cell line: HeLa, IC50
[17] = HeLa, read-out: IC50 in a HeLa cell proliferation assay

SMILES | Human liver microsomes; Fmax [%] [1] | calculated maximal oral bioavailability (Fmax) at 1 μM [1] | IC50 (human kinase Mps-1 [2]; [9]) | IC50 (human kinase Mps-1 [2]; [10]) | IC50 (human kinase Mps-1 [2]; [11]) | Dog liver microsomes; Fmax [%] [3, 12] | Dog liver microsomes; Fmax [%] ([3]; dog liver microsomes, 1 μM) | IC50 [4] | IC50 (human kinase Mps-1 [5]; [13]) | IC50 (human kinase Mps-1 [5]; [14]) | Rat liver microsomes; Fmax [%] [6, 12] | Rat liver microsomes; Fmax [%] ([6]; rat liver microsomes, 1 μM) | IC50 [7, 15] | IC50 [7, 16] | IC50 [7, 17] | other results
C[C@@H](C(=O)Nc1ccc(-c2ccc3nc(Nc4ccc(C(=O)N5CC(F)C5)cc4OCC(F)(F)F)nn3c2)cc1)c1ccc(F)cc1 [Compound A5, (2R)-N-{4-[2-({4-[(3-fluoroazetidin-1-yl)carbonyl]-2-(2,2,2-trifluoroethoxy)phenyl}amino)[1,2,4]triazolo[1,5-α]pyridin-6-yl]phenyl}-2-(4-fluorophenyl)propanamide] | 69% | > 60% | ≤ 1 nM | < 1 nM | < 1 nM | 57% | 57% | < 10000 nM | < 2 nM | < 1 nM | 89% | 89% | < 100 nM | < 100 nM | < 400 nM | –
N#Cc1ccccc1Nc1nc2ccc(-c3ccc(NC(=O)C4(c5ccccc5)CC4)cc3)cn2n1 [reference compound] | – | – | – | 11 nM | – | – | – | – | – | – | – | – | – | 1400 nM | – | –
NC(C(=O)Nc1ccc(-c2ccc3nc(Nc4ccccc4C(F)(F)F)nn3c2)cc1)c1ccccc1 (stereo not shown) [reference compound] | – | – | – | 13 nM | – | – | – | – | – | – | – | – | – | – | – | –
COc1cc(S(C)(=O)=O)ccc1Nc1nc2ccc(-c3ccc(NC(=O)[C@H](C)c4ccc(F)cc4)cc3)cn2n1 [Compound A1, (2R)-2-(4-fluorophenyl)-N-[4-(2-{[2-methoxy-4-(methylsulfonyl)phenyl]-amino}[1,2,4]triazolo[1,5-α]pyridin-6-yl)phenyl]propanamide] | 92% | > 60% | – | – | – | 64% | 64% | < 10000 nM | – | – | 92% | 92% | < 400 nM | < 400 nM | < 400 nM | dissolved amount in mg/100 mL solution ([8]; 0.1M HCl in water): <0.1 mg/100 mL; dissolved amount in mg/100 mL solution ([8]; aqueous solution, acetate buffer pH 4.5): <0.1 mg/100 mL; dissolved amount in mg/100 mL solution ([8]; aqueous solution, phopshate buffer pH 7): <0.1 mg/100 mL; dissolved amount in mg/100 mL solution ([8]; aqueous solution, phopshate buffer pH 8): <0.1 mg/100 mL; dissolved amount in mg/100 mL solution ([8]; solvent acetone): 1518.3 mg/100 mL; dissolved amount in mg/100 mL solution ([8]; solvent acetonitrile): 350.2 mg/100 mL; dissolved amount in mg/100 mL solution ([8]; solvent ethanol): 45.7 mg/100 mL; dissolved amount in mg/100 mL solution ([8]; solvent water): <0.1 mg/100 mL
C[C@@H](C(=O)Nc1ccc(-c2ccc3nc(Nc4ccc(S(C)(=O)=O)cc4OCC(F)(F)F)nn3c2)cc1)c1ccc(F)cc1 [Compound A2, (2R)-2-(4-fluorophenyl)-N-[4-(2-{[4-(methylsulfonyl)-2-(2,2,2-trifluoro-ethoxy)phenyl]amino}[1,2,4]triazolo[1,5-α]pyridin-6-yl)phenyl]-propanamide] | >95% | > 60% | ≤ 1 nM | < 1 nM | < 1 nM | 55% | 55% | < 10000 nM | < 2 nM | < 1 nM | 93% | 93% | < 200 nM | < 200 nM | < 400 nM | –
COc1cc(C(=O)N2CCC2)ccc1Nc1nc2ccc(-c3ccc(NC(=O)[C@H](C)c4ccc(F)cc4)cc3)cn2n1 [Compound A4, (2R)-N-[4-(2-{[4-(azetidin-1-ylcarbonyl)-2-methoxyphenyl]amino}[1,2,4]-triazolo[1,5-α]pyridin-6-yl)phenyl]-2-(4-fluorophenyl)propanamide] | 62% | > 60% | ≤ 1 nM | < 1 nM | < 1 nM | 75% | 75% | < 10000 nM | < 2 nM | < 1 nM | 74% | 74% | < 100 nM | < 100 nM | < 400 nM | –
COc1cc(C(=O)N2CC(F)C2)ccc1Nc1nc2ccc(-c3ccc(NC(=O)[C@H](C)c4ccc(F)cc4)cc3)cn2n1 [Compound A3, (2R)-N-{4-[2-({4-[(3-fluoroazetidin-1-yl)carbonyl]-2-methoxyphenyl}amino)-[1,2,4]triazolo[1,5-α]pyridin-6-yl]phenyl}-2-(4-fluorophenyl)propanamide] | >95% | > 60% | – | – | – | 86% | 86% | < 10000 nM | – | – | 83% | 83% | – | – | – | –
